Test results published in patent US20250268906A1, “MOLECULAR GLUE COMPOUND BASED ON CEREBLON PROTEIN DESIGN AND USE THEREOF” (GLUETACS THERAPEUTICS (SHANGHAI) CO., LTD., priority 2022, published 2025).
Read-outs that look alike come from different tables or passages of the source.

Columns and labels:
[1] = tested on: Mino cells; experiment: Tumor cell proliferation inhibition, CCK-8 kit, 96 h; assay type: cell-based; details: Homo sapiens
Procedure: (§1) The tumor cells used herein were cultured in RPMI 1640 medium supplemented with 10% FBS, penicillin to a final concentration of 100 U/mL, and streptomycin to a final concentration of 100 μg/mL, at 37° C. in an incubator with 5% CO2. Prior to experimentation, all cells used were correctly identified by STR profiling, and tested negative for Mycoplasma through routine screenings.
(§2) After 24 h, 100 μL of the inoculated cells were treated with 0.5 μL of the compounds of the present disclosure (including the compounds in Table 1, and Examples compounds) in DMSO at 10 different successively decreasing concentrations (starting at a maximum concentration of 10 μM; 5-fold serial dilutions). […] The growth inhibition of the compounds of the present disclosure on the cells was plotted using Prism Graphpad software, and the IC50 values of the compounds of the present disclosure were calculated.

[2] = biological target: human Cereblon WT GST-tagged protein (Homo sapiens (Human), UniProt Q96SW2); experiment: CRBN binding, HTRF (CEREBLON BINDING kit)
Procedure: The CEREBLON BINDING kits (specification: 10,000 tests; product number: Catalog #64BDCRBNPEH; CISBIO company) was used to determine the CRBN binding ability of the compounds to be tested through a HTRF method (homogeneous time-resolved fluorescence). The specific methods are as follows: • 1. […] Then, 2.5 μL of human Cereblon WT GST-tagged protein solution was added to each well. Finally, 5 μL of the thoroughly mixed Thalidomide-Re reagent and GST Eu antibody working solution were added to each of the aforementioned wells. […] The blank control wells were sequentially added with 2.5 μL of diluent #9 (1×) solution, 2.5 μL of PROTAC binding buffer, and 5 μL of thoroughly mixed Thalidomide-Re reagent and GST Eu antibody working solution. • 4.
The corresponding CRBN binding inhibition rate was calculated using the following method: […]
OD 620 nmcompound is the absorbance value of each well of the compounds of the present disclosure to be tested at an emission wavelength of 620 nm. […] OD 620 nmcontrol is the absorbance value of the blank control well at an emission wavelength of 620 nm. […] OD 620 nmStd0 is the absorbance value of the solvent control well at an emission wavelength of 620 nm.

[3] = tested on: MM.1S cells; experiment: Tumor cell proliferation inhibition, CCK-8 kit, 96 h; assay type: cell-based; details: Homo sapiens, MM1.S
Procedure: as §1, §2

[4] = tested on: TMD8 cells; experiment: as above; assay type: cell-based; details: Homo sapiens, read-out: IC50 for inhibiting the proliferation of tumor cells, TMD8 cell
Procedure: as §1, §2

[5] = tested on: Daudi cells; experiment: as above; assay type: cell-based; details: Homo sapiens
Procedure: as §1, §2

[6] = biological target: GSPT1 protein (Homo sapiens (Human), UniProt P15170+Q96SW2); details: hPBMC, 24 h, 50 nM
Text: (§3) The supernatant, containing the total cellular protein, was aspirated.

[7] = biological target: IKZF1 protein (Homo sapiens (Human), UniProt Q13422+Q96SW2); experiment: Western blot, substrate protein degradation in hPBMC; assay type: cell-based; details: 24 h
Text: as §3

[8] = biological target: IKZF3 protein (Homo sapiens (Human), UniProt Q96SW2+Q9UKT9); experiment: as above; assay type: cell-based; details: 24 h
Text: as §3

[9] = Mino cells, CCK-8, read-out: IC50 for inhibiting the proliferation of tumor cells, Mino cell
[10] = MM.1S cells, CCK-8, read-out: IC50 for inhibiting the proliferation of tumor cells, MM.1S cell
[11] = Daudi cells, CCK-8, read-out: IC50 for inhibiting the proliferation of tumor cells, Daudi cell

Chain of human Cereblon WT GST-tagged protein (Q96SW2 whole entry): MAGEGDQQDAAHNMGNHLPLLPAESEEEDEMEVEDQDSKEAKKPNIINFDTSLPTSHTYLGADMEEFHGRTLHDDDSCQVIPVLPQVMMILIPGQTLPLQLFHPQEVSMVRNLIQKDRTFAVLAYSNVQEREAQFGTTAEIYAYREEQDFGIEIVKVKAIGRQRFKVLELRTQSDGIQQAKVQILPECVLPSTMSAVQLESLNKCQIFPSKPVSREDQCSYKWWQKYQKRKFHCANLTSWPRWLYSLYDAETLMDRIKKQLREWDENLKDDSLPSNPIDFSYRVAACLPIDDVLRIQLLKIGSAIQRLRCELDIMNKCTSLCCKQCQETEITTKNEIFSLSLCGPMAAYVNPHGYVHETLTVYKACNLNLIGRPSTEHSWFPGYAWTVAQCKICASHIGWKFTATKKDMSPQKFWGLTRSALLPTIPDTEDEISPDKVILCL
Chain of IKZF1 protein (Q13422 whole entry): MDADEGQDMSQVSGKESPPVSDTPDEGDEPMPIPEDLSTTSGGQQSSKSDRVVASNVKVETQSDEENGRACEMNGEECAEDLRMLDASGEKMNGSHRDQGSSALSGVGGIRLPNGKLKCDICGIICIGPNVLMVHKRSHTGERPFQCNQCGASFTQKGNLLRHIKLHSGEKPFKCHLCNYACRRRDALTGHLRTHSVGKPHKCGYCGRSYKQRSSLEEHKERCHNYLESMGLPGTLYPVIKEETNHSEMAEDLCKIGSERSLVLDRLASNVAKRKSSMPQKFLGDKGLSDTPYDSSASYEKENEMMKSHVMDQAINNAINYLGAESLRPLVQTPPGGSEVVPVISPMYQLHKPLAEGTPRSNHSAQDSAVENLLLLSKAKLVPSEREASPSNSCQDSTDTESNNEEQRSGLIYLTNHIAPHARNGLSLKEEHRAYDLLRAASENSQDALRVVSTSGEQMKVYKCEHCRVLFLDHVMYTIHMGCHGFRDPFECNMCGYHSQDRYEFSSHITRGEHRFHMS
Chain of IKZF1 protein (Q96SW2 whole entry): as the sequence (Q96SW2 whole entry) above
Chain of IKZF1 protein (Q16531 whole entry partner): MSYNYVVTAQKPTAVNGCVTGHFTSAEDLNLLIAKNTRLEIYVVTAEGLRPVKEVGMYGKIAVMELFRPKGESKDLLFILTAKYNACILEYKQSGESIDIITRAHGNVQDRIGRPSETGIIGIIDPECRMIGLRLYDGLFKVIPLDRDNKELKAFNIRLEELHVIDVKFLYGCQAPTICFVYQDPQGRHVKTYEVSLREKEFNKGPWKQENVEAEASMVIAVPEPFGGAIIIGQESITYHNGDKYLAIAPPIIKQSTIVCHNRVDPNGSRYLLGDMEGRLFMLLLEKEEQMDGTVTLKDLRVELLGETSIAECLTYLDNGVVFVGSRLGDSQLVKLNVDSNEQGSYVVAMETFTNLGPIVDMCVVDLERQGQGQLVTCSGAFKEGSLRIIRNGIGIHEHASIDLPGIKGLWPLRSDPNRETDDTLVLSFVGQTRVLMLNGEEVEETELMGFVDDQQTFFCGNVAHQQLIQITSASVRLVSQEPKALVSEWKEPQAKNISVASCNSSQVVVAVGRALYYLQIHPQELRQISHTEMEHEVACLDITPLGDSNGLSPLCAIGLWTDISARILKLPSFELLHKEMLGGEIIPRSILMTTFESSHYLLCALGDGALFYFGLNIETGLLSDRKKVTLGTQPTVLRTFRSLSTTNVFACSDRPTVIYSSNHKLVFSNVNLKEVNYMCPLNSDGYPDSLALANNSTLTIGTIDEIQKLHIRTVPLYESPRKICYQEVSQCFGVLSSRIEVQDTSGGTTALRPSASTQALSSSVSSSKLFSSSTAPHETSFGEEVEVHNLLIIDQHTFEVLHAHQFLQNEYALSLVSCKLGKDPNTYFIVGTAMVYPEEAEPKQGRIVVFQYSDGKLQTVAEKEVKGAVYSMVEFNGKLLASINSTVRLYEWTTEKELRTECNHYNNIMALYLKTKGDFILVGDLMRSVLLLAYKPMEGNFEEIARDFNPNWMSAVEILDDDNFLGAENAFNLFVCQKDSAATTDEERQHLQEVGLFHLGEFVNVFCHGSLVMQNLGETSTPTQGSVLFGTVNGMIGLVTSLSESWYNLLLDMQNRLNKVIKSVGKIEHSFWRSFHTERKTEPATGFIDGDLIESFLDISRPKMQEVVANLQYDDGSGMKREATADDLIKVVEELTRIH
Chain of IKZF3 protein (Q9UKT9 whole entry): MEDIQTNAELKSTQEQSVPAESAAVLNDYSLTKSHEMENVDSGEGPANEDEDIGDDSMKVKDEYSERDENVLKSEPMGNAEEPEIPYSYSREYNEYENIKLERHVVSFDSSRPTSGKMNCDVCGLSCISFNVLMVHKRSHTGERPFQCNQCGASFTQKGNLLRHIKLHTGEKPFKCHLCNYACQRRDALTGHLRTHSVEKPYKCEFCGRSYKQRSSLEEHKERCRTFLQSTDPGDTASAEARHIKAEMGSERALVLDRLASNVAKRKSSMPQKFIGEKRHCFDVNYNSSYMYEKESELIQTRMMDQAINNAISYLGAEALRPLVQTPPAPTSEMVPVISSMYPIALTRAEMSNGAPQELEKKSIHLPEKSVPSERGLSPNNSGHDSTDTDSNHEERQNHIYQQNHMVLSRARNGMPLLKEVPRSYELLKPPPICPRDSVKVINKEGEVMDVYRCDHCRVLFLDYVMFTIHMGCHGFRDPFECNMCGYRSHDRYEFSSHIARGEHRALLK
Chain of IKZF3 protein (Q96SW2 whole entry): as the sequence (Q96SW2 whole entry) above
Chain of IKZF3 protein (Q16531 whole entry partner): as the sequence (Q16531 whole entry partner) above
Chain of GSPT1 protein (P15170 whole entry, looked up): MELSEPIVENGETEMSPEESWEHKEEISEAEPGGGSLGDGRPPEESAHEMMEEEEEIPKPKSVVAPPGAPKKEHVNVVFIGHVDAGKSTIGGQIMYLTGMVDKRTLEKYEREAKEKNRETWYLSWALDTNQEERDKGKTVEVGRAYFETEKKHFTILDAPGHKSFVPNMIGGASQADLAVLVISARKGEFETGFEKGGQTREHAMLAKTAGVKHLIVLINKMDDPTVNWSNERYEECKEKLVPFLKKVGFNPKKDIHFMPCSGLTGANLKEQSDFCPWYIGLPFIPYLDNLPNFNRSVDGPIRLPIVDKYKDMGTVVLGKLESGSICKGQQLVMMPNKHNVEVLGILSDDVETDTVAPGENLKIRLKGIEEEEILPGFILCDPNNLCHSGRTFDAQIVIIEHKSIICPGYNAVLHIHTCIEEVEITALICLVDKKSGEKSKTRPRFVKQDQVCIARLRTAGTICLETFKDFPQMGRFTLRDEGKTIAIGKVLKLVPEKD
Chain of GSPT1 protein (Q96SW2 whole entry, looked up): as the sequence (Q96SW2 whole entry) above
Chain of GSPT1 protein (Q16531 whole entry partner, looked up): as the sequence (Q16531 whole entry partner) above

IC50 [1, 9] [nM] | IC50 [2] [nM] | IC50 [3, 10] [nM] | other results | SMILES
< 5 | < 600 | – | – | O=C1CCC(N2Cc3c(SCCCCCCCNC4CCCCC4)cc(F)cc3C2=O)C(=O)N1 (stereo not drawn) [GT-05409, 3-(4-((7-(cyclohexylamino)heptyl)thio)-6-fluoro-1-oxoisoindolin-2-yl)piperidine-2,6-dione]
< 5 | < 600 | < 5 | – | O=C1CCC(N2Cc3c(SCc4ccc(CNC56CC7CC(CC(C7)C5)C6)cc4)cc(F)cc3C2=O)C(=O)N1 (stereo not drawn) [GT-05423, 3-(4-((4-(((adamantan-1-yl)amino)methyl)benzyl)thio)-6-fluoro-1-oxoisoindolin-2-yl)piperidine-2,6-dione]
50 to 100 | < 600 | – | – | O=C1CCC(N2Cc3c(SCCCCCCCN4CCC(F)(F)CC4)cc(F)cc3C2=O)C(=O)N1 (stereo not drawn) [GT-05408, 3-(4-((7-(4,4-difluoropiperidin-1-yl)heptyl)thio)-6-fluoro-1-oxoisoindolin-2-yl)piperidine-2,6-dione]
50 to 100 | < 600 | – | – | O=C1CCC(N2Cc3c(CCCCCCCCNC45CC6CC(CC(C6)C4)C5)cc(F)cc3C2=O)C(=O)N1 (stereo not drawn) [GT-05617, 3-(4-(8-((adamantan-1-yl)amino)octyl)-6-fluoro-1-oxoisoindolin-2-yl)piperidine-2,6-dione]
< 5 | < 600 | < 5 | – | O=C1CCC(N2Cc3c(SCCCCCCCNC4CC5(CCC5)C4)cc(F)cc3C2=O)C(=O)N1 (stereo not drawn) [GT-05422, 3-(6-fluoro-1-oxo-4-((7-(spiro[3.3]heptan-2-ylamino)heptyl)thio)isoindolin-2-yl)piperidine-2,6-dione]
– | < 600 | – | – | O=C1CCC(N2Cc3c(SCCCCCCCNC45CC6CC(CC(C6)C4)C5)cc(F)cc3C2=O)C(=O)N1 (stereo not drawn) [GT-04333, 3-(4-((7-((adamantan-1-yl)amino)heptyl)thio)-6-fluoro-1-oxoisoindolin-2-yl)piperidine-2,6-dione]
– | < 600 | – | IC50 ([4]; TMD8 cells, 96 h, CCK-8): 5 to 10 nM | O=C1CCC(N2Cc3c(SCc4ccc(CN5CCC(F)(F)CC5)cc4)cc(F)cc3C2=O)C(=O)N1 (stereo not drawn) [GT-04024, 3-(4-((4-((4,4-difluoropiperidin-1-yl)methyl)benzyl)thio)-6-fluoro-1-oxoisoindolin-2-yl)piperidine-2,6-dione]
– | < 600 | – | – | O=C1CCC(N2Cc3c(SCCCCCCCN4CCCCC4)cc(F)cc3C2=O)C(=O)N1 (stereo not drawn) [GT-05344, 3-(6-fluoro-1-oxo-4-((7-(piperidin-1-yl)heptyl)thio)isoindolin-2-yl)piperidine-2,6-dione]
< 5 | < 600 | 10 to 50 | IC50 [5, 11]: 100 to 500 nM | CC1(C)[C@@H]2CC[C@@]1(C)[C@@H](NCc1ccc(CSc3cc(F)cc4c3CN(C3CCC(=O)NC3=O)C4=O)cc1)C2 (stereo partly drawn) [GT-05424, 3-(6-fluoro-1-oxo-4-((4-((((1R,2S,4R)-1,7,7-trimethylbicyclo[2.2.1]heptan-2-yl)amino)methyl)benzyl)thio)isoindolin-2-yl)piperidine-2,6-dione]
< 5 | < 600 | – | IC50 [5, 11]: 500 to 1000 nM; IC50 ([4]; TMD8 cells, 96 h, CCK-8): 10 to 50 nM | O=C1CCC(N2Cc3c(SCc4ccc(CN5CCCCC5)cc4)cc(F)cc3C2=O)C(=O)N1 (stereo not drawn) [GT-04117, 3-(6-fluoro-1-oxo-4-((4-(piperidin-1-ylmethyl)benzyl)thio)isoindolin-2-yl)piperidine-2,6-dione]
< 5 | < 600 | < 5 | IC50 [5, 11]: 10 to 50 nM | O=C1CCC(N2Cc3c(SCc4ccc(CN5CCC(F)(F)CC5)c(F)c4)cc(F)cc3C2=O)C(=O)N1 (stereo not drawn) [GT-05444, 3-(4-((4-((4,4-difluoropiperidin-1-yl)methyl)-3-fluorobenzyl)thio)-6-fluoro-1-oxoisoindolin-2-yl)piperidine-2,6-dione]
– | – | – | IC50 ([3]; read-out: IC50 for inhibiting the proliferation of tumor cells, MM.1S cell): 100 to 500 nM; IC50 ([5]; Daudi, read-out: IC50 for inhibiting the proliferation of tumor cells, Daudi cell): 1000 to 5000 nM; IC50 ([1]; MINO, read-out: IC50 for inhibiting the proliferation of tumor cells, Mino cell): 100 to 500 nM; IC50 ([4]; TMD8, 96 h): 100 to 500 nM; degradation of GSPT1 protein [6]: does not degrade; degradation of IKZF1 protein ([7]; 50 nM): does not degrade; degradation of IKZF3 protein ([8]; 50 nM): does not degrade | Nc1cccc2c1C(=O)N(C1CCC(=O)NC1=O)C2=O (stereo not drawn) [pomalidomide, reference compound]
– | < 600 | – | – | CCN(CC)CCCCCCCCSc1cc(F)cc2c1CN(C1CCC(=O)NC1=O)C2=O (stereo not drawn) [GT-05342, 3-(4-((8-(diethylamino)octyl)thio)-6-fluoro-1-oxoisoindolin-2-yl)piperidine-2,6-dione]
– | < 600 | – | – | O=C1CCC(N2Cc3c(SCCCCNC45CC6CC(CC(C6)C4)C5)cc(F)cc3C2=O)C(=O)N1 (stereo not drawn) [GT-04243, 3-(4-((4-((adamantan-1-yl)amino)butyl)thio)-6-fluoro-1-oxoisoindolin-2-yl)piperidine-2,6-dione]
< 5 | < 600 | 50 to 100 | IC50 [5, 11]: 500 to 1000 nM | CC1(C)[C@@H]2CC[C@@]1(C)[C@@H](NCCCCCCCSc1cc(F)cc3c1CN(C1CCC(=O)NC1=O)C3=O)C2 (stereo partly drawn) [GT-05425, 3-(6-fluoro-1-oxo-4-((7-(((1R,2S,4R)-1,7,7-trimethylbicyclo[2.2.1]heptan-2-yl)amino)heptyl)thio)isoindolin-2-yl)piperidine-2,6-dione]
10 to 50 | < 600 | – | – | O=C1CCC(N2Cc3c(SCCCCCCC(=O)N4CCCCC4)cc(F)cc3C2=O)C(=O)N1 (stereo not drawn) [GT-05343, 3-(6-fluoro-1-oxo-4-((7-oxo-7-(piperidin-1-yl)heptyl)thio)isoindolin-2-yl)piperidine-2,6-dione]
– | < 600 | – | – | O=C1CCC(N2Cc3c(SCCCCCCCCN4CCOCC4)cc(F)cc3C2=O)C(=O)N1 (stereo not drawn) [GT-05341, 3-(6-fluoro-4-((8-morpholinooctyl)thio)-1-oxoisoindolin-2-yl)piperidine-2,6-dione]
< 5 | < 600 | 10 to 50 | IC50 [5, 11]: 100 to 500 nM; concentration at which IKZF1 protein is significantly degraded ([7]; Western blot): below 0.1 nM; concentration at which IKZF3 protein is significantly degraded ([8]; Western blot): below 10 nM | O=C1CCC(N2Cc3c(SCc4ccc(CN5CCCCC5)c(F)c4)cc(F)cc3C2=O)C(=O)N1 (stereo not drawn) [GT-05443, 3-(6-fluoro-4-((3-fluoro-4-(piperidin-1-ylmethyl)benzyl)thio)-1-oxoisoindolin-2-yl)piperidine-2,6-dione]
10 to 50 | < 600 | 50 to 100 | – | O=C1CCC(N2Cc3c(SCCCCCCC(=O)N4CCC(F)(F)CC4)cc(F)cc3C2=O)C(=O)N1 (stereo not drawn) [GT-05407, 3-(4-((7-(4,4-difluoropiperidin-1-yl)-7-oxoheptyl)thio)-6-fluoro-1-oxoisoindolin-2-yl)piperidine-2,6-dione]
< 5 | < 600 | < 5 | – | CN(CCCCCCCSc1cc(F)cc2c1CN(C1CCC(=O)NC1=O)C2=O)C12CC3CC(CC(C3)C1)C2 (stereo not drawn) [GT-05421, 3-(4-((7-((adamantan-1-yl)(methyl)amino)heptyl)thio)-6-fluoro-1-oxoisoindolin-2-yl)piperidine-2,6-dione]
< 5 | < 600 | < 5 | IC50 [5, 11]: < 5 nM | O=C1CCC(N2Cc3c(SCc4ccc(CCNC56CC7CC(CC(C7)C5)C6)cc4)cc(F)cc3C2=O)C(=O)N1 (stereo not drawn) [GT-05431, 3-(4-((4-(2-((adamantan-1-yl)amino)ethyl)benzyl)thio)-6-fluoro-1-oxoisoindolin-2-yl)piperidine-2,6-dione]
